Source: ChEMBL document CHEMBL1201862, “PubChem BioAssay data set” (2004)
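Step 1: Grow cells in 96-well plates. Step 2: Expose to compound for 48 hours at 5 concentrations. Step 3: Interpolate endpoints linearly; if unreached, use highest concentration. The concentration for 50% growth inhibition is given as GI50.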 Active and inactive are the calls of the source. Rule as the data show it: active = GI50 up to about 1.1 µM and inactive = higher.

Columns and labels:
Assay in all cases: inhibition of tumour cell growth, NCI panel, 48 h
[1] = test system: NCI-H460
[2] = test system: T47D
[3] = test system: PC-3
[4] = test system: SK-MEL-28
[5] = test system: OVCAR-5
[6] = test system: K562
[7] = test system: SR
[8] = test system: DU-145
[9] = test system: MOLT-4
[10] = test system: LOX IMVI
[11] = test system: NCI-H522
[12] = test system: HCT-15
[13] = test system: RPMI-8226
[14] = test system: U-251
[15] = test system: HL-60
[16] = test system: SF-539
[17] = test system: OVCAR-4
[18] = test system: MDA-MB-435
[19] = test system: NCI-H226
[20] = test system: SN12C

Compound: CC(=O)O[C@H]1C(=O)[C@@]2(C)[C@H]([C@H](OC(=O)c3ccoc3)[C@]3(O)C[C@H](OC(=O)[C@H](O)[C@@H](NC(=O)c4ccccc4)c4ccccc4)C(C)=C1C3(C)C)[C@]1(OC(C)=O)CO[C@@H]1C[C@@H]2O
- GI50 [1]: 0.0524 µM (active)
- GI50 [2]: 0.0461 µM (active)
- GI50 [3]: 0.053 µM (active)
- GI50 [4]: > 12.5 µM (inactive)
- GI50 [5]: 0.0953 µM (active)
- GI50 [6]: 0.0324 µM (active)
- GI50 [7]: 0.026 µM (active)
- GI50 [8]: 0.352 µM (active)
- GI50 [9]: 0.045 µM (active)
- GI50 [10]: 0.032 µM (active)
- GI50 [11]: 0.0434 µM (active)
- GI50 [12]: 4.24 µM
- GI50 [13]: 0.00904 µM (active)
- GI50 [14]: 0.0811 µM (active)
- GI50 [15]: 0.0107 µM (active)
- GI50 [16]: 0.0286 µM (active)
- GI50 [17]: > 12.5 µM (inactive)
- GI50 [18]: 0.00456 µM (active)
- GI50 [19]: 0.11 µM (active)

Compound: CCCn1c(SC)nc(COC(=O)NC)c1COC(=O)NC
- GI50 [1]: > 100 µM (inactive)
- GI50 [2]: > 100 µM (inactive)
- GI50 [3]: > 100 µM (inactive)
- GI50 [4]: > 100 µM (inactive)
- GI50 [5]: > 100 µM (inactive)
- GI50 [6]: > 100 µM (inactive)
- GI50 [7]: > 100 µM (inactive)
- GI50 [8]: > 100 µM (inactive)
- GI50 [20]: > 100 µM (inactive)
- GI50 [9]: > 100 µM (inactive)
- GI50 [10]: > 100 µM (inactive)
- GI50 [11]: > 100 µM (inactive)
- GI50 [12]: > 100 µM
- GI50 [13]: > 100 µM (inactive)
- GI50 [15]: > 100 µM (inactive)
- GI50 [16]: > 100 µM (inactive)
- GI50 [17]: > 100 µM (inactive)
- GI50 [18]: > 100 µM (inactive)
- GI50 [19]: > 100 µM (inactive)

Compound: N#CC(C#N)=C/C=C/c1c(Cl)cccc1Cl
- GI50 [1]: 1.87 µM (inactive)
- GI50 [2]: 2.24 µM (inactive)
- GI50 [3]: 1.81 µM (inactive)
- GI50 [4]: 1.64 µM (inactive)
- GI50 [6]: 2.55 µM (inactive)
- GI50 [7]: 1.7 µM (inactive)
- GI50 [8]: 1.71 µM (inactive)
- GI50 [20]: 1.8 µM (inactive)
- GI50 [9]: 1.88 µM (inactive)
- GI50 [10]: 1.73 µM (inactive)
- GI50 [11]: 1.65 µM (inactive)
- GI50 [12]: 1.91 µM
- GI50 [13]: 1.78 µM (inactive)
- GI50 [14]: 1.81 µM (inactive)
- GI50 [15]: 0.698 µM (active)
- GI50 [16]: 1.28 µM (inactive)
- GI50 [17]: 1.72 µM (inactive)
- GI50 [18]: 2.14 µM (inactive)
- GI50 [19]: 2.45 µM (inactive)

Compound: CCOC(=O)N1c2ccccc2C(C)=CC(C)C1C (centres undefined)
- GI50 [1]: 21.4 µM (inactive)
- GI50 [2]: 52.1 µM (inactive)
- GI50 [3]: 55.8 µM (inactive)
- GI50 [4]: 35.9 µM (inactive)
- GI50 [5]: 40.1 µM (inactive)
- GI50 [6]: 18.9 µM (inactive)
- GI50 [7]: 5.09 µM (inactive)
- GI50 [8]: 38.3 µM (inactive)
- GI50 [20]: 40.7 µM (inactive)
- GI50 [9]: 39.4 µM (inactive)
- GI50 [10]: 7.53 µM (inactive)
- GI50 [11]: 18.7 µM (inactive)
- GI50 [12]: 5.36 µM
- GI50 [13]: 56.8 µM (inactive)
- GI50 [15]: 27.2 µM (inactive)
- GI50 [16]: 20.4 µM (inactive)
- GI50 [17]: 60.5 µM (inactive)
- GI50 [18]: 3.37 µM (inactive)
- GI50 [19]: 22.8 µM (inactive)

Compound: COc1cc(C(=O)Oc2c(C(C)=O)sc3c2c(=O)n(-c2ccccc2)c(=S)n3-c2ccccc2)cc(OC)c1OC
- GI50 [1]: 12.6 µM (inactive)
- GI50 [2]: 26.5 µM (inactive)
- GI50 [3]: 18.2 µM (inactive)
- GI50 [4]: 19.2 µM (inactive)
- GI50 [5]: 17.5 µM (inactive)
- GI50 [6]: 33.6 µM (inactive)
- GI50 [7]: > 100 µM (inactive)
- GI50 [8]: 26.4 µM (inactive)
- GI50 [20]: 11.9 µM (inactive)
- GI50 [9]: 25 µM (inactive)
- GI50 [10]: 18.7 µM (inactive)
- GI50 [11]: 1.01 µM (active)
- GI50 [12]: 22.2 µM
- GI50 [13]: 27 µM (inactive)
- GI50 [14]: 20.7 µM (inactive)
- GI50 [15]: 24.7 µM (inactive)
- GI50 [16]: 11.6 µM (inactive)
- GI50 [17]: 24.5 µM (inactive)
- GI50 [18]: 22.5 µM (inactive)
- GI50 [19]: 3.86 µM (inactive)

Compound: O=c1[nH]c2nc3ccccc3c(=O)n2/c1=C/c1ccccc1
- GI50 [2]: 40.4 µM (inactive)
- GI50 [3]: 92 µM (inactive)
- GI50 [4]: 45.1 µM (inactive)
- GI50 [5]: > 100 µM (inactive)
- GI50 [7]: > 100 µM (inactive)
- GI50 [8]: 29 µM (inactive)
- GI50 [20]: 25.1 µM (inactive)
- GI50 [9]: 95.5 µM (inactive)
- GI50 [10]: 25.2 µM (inactive)
- GI50 [11]: 17.1 µM (inactive)
- GI50 [12]: 29.8 µM
- GI50 [13]: 34.9 µM (inactive)
- GI50 [14]: 29.9 µM (inactive)
- GI50 [15]: 56.1 µM (inactive)
- GI50 [16]: 22.5 µM (inactive)
- GI50 [17]: > 100 µM (inactive)
- GI50 [18]: 21.9 µM (inactive)
- GI50 [19]: 18.7 µM (inactive)
